Assay results from patent publication US20250082624A1, “METHODS OF TREATING COGNITIVE IMPAIRMENT” (NeuroTherapia, Inc., priority 2023, published 2025).
Several values for one entry are separate records, joined by “and”; a condition that tells them apart may be missing. Identical values can stand only once. Entries after “also recorded” stand apart in the source; their conditions may differ. Like-named read-outs stand apart in the source and are kept apart here.

Assay: Phase 1b MAD plasma pharmacokinetics, non-compartmental analysis
Assay type: in vivo, human
Description: Methods: All study procedures were approved by the IRB, and informed consent was obtained. Three cohorts of volunteers 45-80 years of age with well-controlled comorbidities (NOAD) and one cohort of AD patients diagnosed with cognitive impairment consistent with prodromal AD per International Working Group criteria or mild AD per National Institute on Aging—Alzheimer's Association criteria (n=6 active, 2 placebo per cohort) were enrolled. Participants were admitted to the study site for the duration of the dosing and returned 7-12 days after the last dose for a safety visit. Participants received NTRX-07 (10, 30, or 90 mg) or a placebo in a double-blinded randomization orally once daily for seven days. Subjects were assessed for changes in vital signs, including maneuvers to induce lightheadedness, electrocardiograms, 24-hour electroencephalograms (EEG), and safety laboratory studies. The second cohort returned and received a single repeat dose after a standard high-fat meal. The AD cohort also underwent cognitive testing and had blood samples for biomarkers drawn. Subjects had PK sampling done after the first and final dose of the study drug. An independent safety review committee conducted a blinded safety review of adverse events and plasma levels between each cohort.
All subjects had PK sampling done after the first and final dose of the study drug.
Raw bioanalytical data were received from Nuvisan following analysis of plasma samples from each of four cohorts. PK parameters were calculated by noncompartmental analysis using standard equations. Specifically, area under the plasma concentration versus time curve (AUC) was calculated using the trapezoid rule. Maximal plasma concentration (Cmax) and time of maximal plasma concentration (Tmax) were taken directly from the data. Clearance divided by bioavailability (Cl/F) was calculated as the dose divided by the AUC. Apparent volume of distribution over bioavailability (Vd/F) was calculated as dose divided by Cmax.
With oral administration of the dose every 24 hours for 7 days, blood samples were taken over a 24-hour interval on Days 1 and 7 and before and after dosing on Day 3.
Raw bioanalytical data were received from Nuvisan on Oct. 27, 2022. […] Specifically, area under the plasma concentration versus time curve (AUC) was calculated using the trapezoid rule. Maximal plasma concentration (Cmax) and time of maximal plasma concentration (Tmax) were taken directly from the data. Clearance divided by bioavailability (Cl/F) was calculated as the dose divided by the AUC. Apparent volume of distribution over bioavailability (Vd/F) was calculated as dose divided by Cmax.
Raw bioanalytical data were received from Nuvisan on Nov. 24, 2022. […] Specifically, area under the plasma concentration versus time curve (AUC) was calculated using the trapezoid rule. Maximal plasma concentration (Cmax) and time of maximal plasma concentration (Tmax) were taken directly from the data. Clearance divided by bioavailability (Cl/F) was calculated as the dose divided by the AUC. Apparent volume of distribution over bioavailability (Vd/F) was calculated as dose divided by Cmax.
Raw bioanalytical data were received from Nuvisan on Dec. 19, 2022. […] Specifically, area under the plasma concentration versus time curve (AUC) was calculated using the trapezoid rule. Maximal plasma concentration (Cmax) and time of maximal plasma concentration (Tmax) were taken directly from the data. Clearance divided by bioavailability (Cl/F) was calculated as the dose divided by the AUC. Apparent volume of distribution over bioavailability (Vd/F) was calculated as dose divided by Cmax.
Raw bioanalytical data were received from Nuvisan on Jun. 30, 2023. […] Specifically, area under the plasma concentration versus time curve (AUC) was calculated using the trapezoid rule. Maximal plasma concentration (Cmax) and time of maximal plasma concentration (Tmax) were taken directly from the data. […]

[1] = Table 17: Cohort D (AD), 90 mg QD oral, Day 7, individual subjects
[2] = Table 19 (interim): Cohort A, 40 mg SDD (10 mg NTRX-07) QD oral, Day 1, individual subjects
[3] = Table 20 (interim): Cohort A, 40 mg SDD (10 mg NTRX-07) QD oral, Day 7, individual subjects
[4] = Table 24 (interim): Cohort B, 120 mg SDD (30 mg NTRX-07) QD oral, Day 1, individual subjects
[5] = Table 25 (interim): Cohort B, 120 mg SDD (30 mg NTRX-07) QD oral, Day 7, individual subjects
[6] = Table 29 (interim): Cohort C, 360 mg SDD (90 mg NTRX-07) QD oral, Day 1, individual subjects
[7] = Table 30 (interim): Cohort C, 360 mg SDD (90 mg NTRX-07) QD oral, Day 7, individual subjects
[8] = Table 34 (interim): Cohort D (AD), 360 mg SDD (90 mg NTRX-07) QD oral, Day 1, individual subjects
[9] = Table 35 (interim): Cohort D (AD), 360 mg SDD (90 mg NTRX-07) QD oral, Day 7, individual subjects

CC1(Cc2ccccc2)COc2cc(C(=O)N3CCCCC3)ccc21 (centres unmarked) [NTRX-07, 3-benzyl-3-methyl-2,3-dihydrobenzofuran-6-carboxylic acid-piperidine amide]
Cmax [1]: 250 ng/mL and 262 ng/mL and 246 ng/mL and 176 ng/mL and 221 ng/mL | Tmax [1]: 1.5 h (3×) and 1 h | Cl/F (Table 17: Cohort D (AD), 90 mg QD oral, Day 7, mean ± S.D.): 117 ± 28 L/h | AUC24 h [2]: 35.7 ng·h/mL and 73.8 ng·h/mL and 151.0 ng·h/mL and 46.3 ng·h/mL and 154.2 ng·h/mL and 96.8 ng·h/mL | Cl/F [2]: 1120 L/h and 542 L/h and 265 L/h and 864 L/h and 259 L/h and 413 L/h | Cmax [2]: 24.2 ng/mL and 45.0 ng/mL and 36.7 ng/mL and 18.2 ng/mL and 52.6 ng/mL and 37.0 ng/mL | Tmax [2]: 1.0 h | Cl/F (Table 19 (interim): Cohort A, 40 mg SDD (10 mg NTRX-07) QD oral, Day 1, mean ± S.D.): 577 ± 347 L/h | AUC24 h [3]: 49.5 ng·h/mL and 92.8 ng·h/mL and 223.8 ng·h/mL and 41.5 ng·h/mL and 91.9 ng·h/mL and 67.0 ng·h/mL | Cl/F [3]: 808 L/h and 431 L/h and 179 L/h and 963 L/h and 435 L/h and 597 L/h | Cmax [3]: 29.6 ng/mL and 39.4 ng/mL and 63.6 ng/mL and 19.6 ng/mL and 46.7 ng/mL and 27.1 ng/mL | Tmax [3]: 1.0 h | Cl/F (Table 20 (interim): Cohort A, 40 mg SDD (10 mg NTRX-07) QD oral, Day 7, mean ± S.D.): 569 ± 284 L/h | AUC24 h [4]: 152.3 ng·h/mL and 462.4 ng·h/mL and 716.3 ng·h/mL and 369.3 ng·h/mL and 229.9 ng·h/mL and 97.4 ng·h/mL and 236.4 ng·h/mL | Cl/F [4]: 788 L/h and 260 L/h and 168 L/h and 325 L/h and 522 L/h and 1231 L/h and 508 L/h | Cmax [4]: 60.8 ng/mL and 93.9 ng/mL and 209 ng/mL and 127 ng/mL and 153 ng/mL and 47.9 ng/mL and 70.6 ng/mL | Tmax [4]: 1 h (3×) and 2 h | Cl/F (Table 24 (interim): Cohort B, 120 mg SDD (30 mg NTRX-07) QD oral, Day 1, mean ± S.D.): 549 ± 401 L/h | AUC24 h [5]: 118.0 ng·h/mL and 582.3 ng·h/mL and 286.5 ng·h/mL and 241.7 ng·h/mL and 67.1 ng·h/mL and 200.4 ng·h/mL | Cl/F [5]: 1017 L/h and 206 L/h and 419 L/h | Cmax [5]: 92.9 ng/mL and 236 ng/mL and 127 ng/mL | Tmax [5]: 1 h | AUC24 h [6]: 1629 ng·h/mL and 857 ng·h/mL and 925 ng·h/mL and 657 ng·h/mL and 1730 ng·h/mL and 1949 ng·h/mL | Tmax [6]: 1.5 h (2×) and 8 h and 1 h and 3 h | AUC24 h [7]: 783 ng·h/mL and 604 ng·h/mL and 354 ng·h/mL and 516 ng·h/mL and 876 ng·h/mL and 1349 ng·h/mL | Tmax [7]: 2 h and 1.5 h and 3 h | AUC24 h [8]: 1004 ng·h/mL and 1255 ng·h/mL and 2727 ng·h/mL and 1349 ng·h/mL and 1580 ng·h/mL and 1422 ng·h/mL | Tmax [8]: 2 h and 1 h (2×) and 1.5 h | AUC24 h [9]: 1854 ng·h/mL and 1659 ng·h/mL and 1603 ng·h/mL and 1328 ng·h/mL and 1130 ng·h/mL | Tmax [9]: 1.5 h (3×) and 1 h | PK / plasma levels AD vs Non-AD participants (high dose (90 mg)): similar; also recorded: comparable | Cmax (human, plasma, oral, 90 mg, high dose (90 mg), AD participants, read-out: Cmax): 477 ng/mL | AUC(0-t) (human, plasma, oral, 90 mg, high dose (90 mg), AD participants, read-out: average of AUC0-24 h): 1560 ng·h/mL | Cmax (human, plasma, oral, 90 mg, high dose (90 mg), Non-AD participants, read-out: Cmax): 439 ng/mL | AUC(0-t) (human, plasma, oral, 90 mg, high dose (90 mg), Non-AD participants, read-out: average of AUC0-24 h): 1290 ng·h/mL | AUC(0-t) (human, plasma, po, 10 mg, Cohort A healthy, 10 mg QD oral, Day 1, mean ± SD, read-out: Average of AUC24 h): 78.8 ± 43.7 ng·h/mL | Cmax (human, plasma, po, 10 mg, Cohort A healthy, 10 mg QD oral, Day 1, mean ± SD, read-out: Average of Cmax): 35.6 ± 12.8 ng/mL | Tmax (human, plasma, po, 10 mg, Cohort A healthy, 10 mg QD oral, Day 1, mean ± SD, read-out: Average of Tmax): 0.7 ± 0.3 h | Vd/F (human, plasma, po, 10 mg, Cohort A healthy, 10 mg QD oral, Day 1, mean ± SD, read-out: Average of Vd/F): 1280 ± 544 L | AUC(0-t) (human, plasma, po, 10 mg, Cohort A healthy, 10 mg QD oral, Day 7, mean ± SD, read-out: Average of AUC24 h): 90.4 ± 67.9 ng·h/mL | Cmax (human, plasma, po, 10 mg, Cohort A healthy, 10 mg QD oral, Day 7, mean ± SD, read-out: Average of Cmax): 37.7 ± 15.9 ng/mL | Tmax (human, plasma, po, 10 mg, Cohort A healthy, 10 mg QD oral, Day 7, mean ± SD, read-out: Average of Tmax): 0.8 ± 0.3 h | Vd/F (human, plasma, po, 10 mg, Cohort A healthy, 10 mg QD oral, Day 7, mean ± SD, read-out: Average of Vd/F): 307 ± 126 L | Tmax (human, plasma, po, 10 mg, Table 9: Cohort A, 10 mg QD oral, Day 1, individual subjects, read-out: Tmax): 0.5 h | AUC(0-t) (human, plasma, po, 10 mg, Table 9: Cohort A, 10 mg QD oral, Day 1, mean ± S.D., read-out: AUClast): 78.8 ± 43.7 ng·h/mL | Cmax (human, plasma, po, 10 mg, Table 9: Cohort A, 10 mg QD oral, Day 1, mean ± S.D., read-out: Cmax): 35.6 ± 12.8 ng/mL | Tmax (human, plasma, po, 10 mg, Table 9: Cohort A, 10 mg QD oral, Day 1, mean ± S.D., read-out: Tmax): 0.7 ± 0.3 h | Vd/F (human, plasma, po, 10 mg, Table 9: Cohort A, 10 mg QD oral, Day 1, mean ± S.D., read-out: Vd/F): 1280 ± 544 L | Tmax (human, plasma, po, 10 mg, Table 10: Cohort A, 10 mg QD oral, Day 7, individual subjects, read-out: Tmax): 0.5 h | AUC over 24 h (AUC0-24) (human, plasma, po, 10 mg, Table 10: Cohort A, 10 mg QD oral, Day 7, mean ± S.D.): 90.4 ± 67.9 ng·h/mL
